# Key:
# [1] = tested on: Streptococcus pyogenes NZ131; experiment: Antimicrobial peptide co-culture, viable bacteria in a dish coating manner; assay type: cell-based; settings: 1-200 mg/mL
# Protocol: (§1) The powder was diluted with DMSO to different concentrations. Subsequently, after being co-cultured with pathogenic streptococcus for different time periods, it was confirmed whether the antimicrobial peptides were the antimicrobial peptide of GM-080 capable of inhibiting Streptococcus pyogenes NZ131 by OD6oonm or in a dish coating manner simultaneously.
# [2] = tested on: Streptococcus pyogenes NZ131; experiment: Antimicrobial peptide co-culture with Streptococcus pyogenes (OD); assay type: cell-based
# Protocol: as §1
Sequence,"inhibition of growth of Streptococcus pyogenes in a dish coating manner (viable bacteria) ([1]; co-cultured for 2 or 5 hours, FIG. 9A)","inhibition of Streptococcus pyogenes in a co-culture manner ([2]; 10-200 mg/mL, from 2-3 hours of co-culture, FIG. 8A)",inhibition of growth of Streptococcus pyogenes in a dish coating manner ([1]; FIG. 9B),"inhibition of growth of Streptococcus pyogenes in a co-culture manner ([2]; 1-200 mg/mL, FIG. 8B)"
"MELLNEKELAHVIGGKRKCPKTPFDNTPGAWFAHLILGC (GM-080; listed as Lactobacillus paracasei) [AMP-01026, antimicrobial peptide of Lactobacillus paracasei GM-080, synthesized]",significantly inhibit the growth,good inhibition effect,–,–
"MKQFDEQKMVNMSDEELLEFIGGDSIRDVSPTFNKIRRWFDGLFK (GM-080; listed as Lactobacillus paracasei) [AMP-01240, second predicted antimicrobial peptide segment of GM-080, synthesized]",–,–,not capable of inhibiting the growth,not capable of inhibiting the growth

# — US20250197460A1, “USE OF LACTOBACILLUS PARACASEI GM-080 AND PEPTIDES THEREOF FOR ANTIMICROBIA” (GenMont Biotech Incorporation, priority 2023, published 2025)
